Experiments:
Assay in all cases: Fecal microbiota analysis, differential abundance of taxa (MaAsLin)
Assay type in all cases: in vivo, human
Peptococcaceae = details: after GLU intake compared to baseline (GLU (Pre)), p=0.021
Protocol: (§1) To determine significant differences between bacterial alpha diversity metrics (the measure of microbiome diversity within a single sample), a paired t-test was used between alpha diversity values of different sample groups (p<0.05). Significant differences in beta diversity (the measure of similarity or dissimilarity of multiple samples) between groups was determined using the qiime diversity beta-group-significance command in QIIME2 as well, which performs pairwise Permutational Multivariate Analysis of Variance (PERMANOVA) tests on beta diversity distance matrices (p<0.05). Differential abundance of taxa between sample groups were evaluated using Multivariate Analysis by Linear Models (MaAsLin) in R version 4.0.2 using the Maaslin2 command in the Maaslin2 R library on rarified taxonomy data generated by QIIME2 (p<0.05). […]
(§2) A fecal microbiota analysis was further conducted. […] The Qubit Fluorometer (Thermo Fisher Scientific, San Francisco, Calif.) was used to quantify PCR product concentrations prior to combining the PCR products in equal quantities for purification with the Wizard SV Gel and PCR Cleanup kit (Promega, Madison, Wis.). […] Library purity and concentration was measured on a 2100 Bioanalyzer System (Agilent Technologies, Santa Clara, Calif.). […]
(§3) Ion Torrent BAM files of raw DNA sequencing data were converted to the FASTQ format using BEDTools and then analyzed using Quantitative Insights into Microbiology (QIIME2) version 2019.10. Reads shorter than 200 bp in length were removed. […] Multiple sequence Alignment using Fast Fourier Transform (MAFFT) was used for read alignment, while gapped and unconserved alignments were filtered using the alignment mask plugin. […] Sequences of mitochondria and chloroplast origin were filtered from downstream analysis, leaving a total of 1,391,259 total high-quality reads associated with taxonomic annotations. Samples were rarified to 7,874 reads for alpha and beta diversity analysis. […]

Bacillaceae = details: after GLU intake compared to baseline (GLU (Pre)), p=0.038
Protocol: as §1, §2, §3

Pseudomonadaceae = details: after GLU intake compared to baseline (GLU (Pre)), p=0.014
Protocol: as §1, §2, §3

## Cl.N[C@H]1C(O)O[C@H](CO)[C@@H](O)[C@@H]1O (stereo partly drawn) [GLU, glucosamine hydrochloride]
Peptococcaceae
  Proportion of Peptococcaceae, Log2 FC: −4.52
Bacillaceae
  Proportion of Bacillaceae: not detected
Pseudomonadaceae
  Proportion of Pseudomonadaceae, Log2 FC: −1.05
